Activity calls are given as the source filed them.
Columns and labels:
[1] = tested on: Streptococcus sp. 'group A'; assay: growth inhibition of control SK(-) GAS strain, dose response, counter-screen for streptokinase expression inhibitor project, luminescence, kanamycin, BacTiterGlo, confirmation (AID 1900); type: functional, organism-based
Streptococcus = assay: Group A Streptococcus viability loss, dose response, counter-screen for streptokinase expression inhibitor project, luminescence, BacTiterGlo (AID 1915); type: functional, organism-based;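 further: potency for reduction of bacterial viability or growth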
[2] = microbe, parasite or virus in culture; type: functional; details: Mycobacterium tuberculosis
Streptokinase A = biological target: T1, Streptokinase A (Streptococcus pyogenes serotype M1, UniProt P10520); assay: S. pyogenes streptokinase expression inhibitors, potency, dose response, plasminogen activation absorbance, OD405 (AID 1914); type: functional, Streptococcus pyogenes M1 GAS;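 further: secreted streptokinase activity via plasminogen activation per viability signal from cell pellet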
T1 sequence (P10520 whole entry): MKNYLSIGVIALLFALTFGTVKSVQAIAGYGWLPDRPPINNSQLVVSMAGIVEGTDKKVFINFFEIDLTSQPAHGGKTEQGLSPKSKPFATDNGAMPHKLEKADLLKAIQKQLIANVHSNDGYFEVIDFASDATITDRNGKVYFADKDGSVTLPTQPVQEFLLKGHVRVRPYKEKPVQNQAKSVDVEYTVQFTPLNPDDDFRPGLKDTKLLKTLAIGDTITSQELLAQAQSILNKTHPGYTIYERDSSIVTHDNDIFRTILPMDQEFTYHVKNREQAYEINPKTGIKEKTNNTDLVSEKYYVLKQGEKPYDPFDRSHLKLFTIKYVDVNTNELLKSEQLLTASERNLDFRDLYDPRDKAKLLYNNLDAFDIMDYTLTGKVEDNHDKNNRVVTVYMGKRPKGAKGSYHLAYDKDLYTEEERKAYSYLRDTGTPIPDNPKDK

[3] = biological target: T2, High affinity choline transporter 1 (Homo sapiens, UniProt Q9GZV3); assay: CHT inhibitors, dose response, cell-based, 5-point CRC, membrane potential dye (AID 504840); type: functional
T2 sequence (Q9GZV3 whole entry): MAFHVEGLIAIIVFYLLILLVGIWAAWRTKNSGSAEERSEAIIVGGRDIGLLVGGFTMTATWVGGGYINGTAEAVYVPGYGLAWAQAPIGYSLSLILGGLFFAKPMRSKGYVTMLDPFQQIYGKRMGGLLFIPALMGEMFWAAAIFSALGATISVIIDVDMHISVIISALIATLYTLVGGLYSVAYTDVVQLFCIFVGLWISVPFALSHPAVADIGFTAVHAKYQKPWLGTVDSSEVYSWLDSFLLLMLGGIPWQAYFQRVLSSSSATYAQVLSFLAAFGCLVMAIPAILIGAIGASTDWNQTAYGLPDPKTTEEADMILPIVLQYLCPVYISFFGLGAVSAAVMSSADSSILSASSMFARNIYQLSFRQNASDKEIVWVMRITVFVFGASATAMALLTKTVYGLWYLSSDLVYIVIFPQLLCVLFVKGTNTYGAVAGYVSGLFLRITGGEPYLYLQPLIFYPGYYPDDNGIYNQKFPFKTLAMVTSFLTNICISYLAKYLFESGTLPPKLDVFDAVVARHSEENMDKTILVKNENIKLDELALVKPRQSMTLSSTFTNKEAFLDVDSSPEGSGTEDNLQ

Aminopeptidase N = biological target: T3, Aminopeptidase N (Plasmodium falciparum FcB1/Columbia, UniProt O96935); assay: P. falciparum M1AAP inhibitors, biochemical, fluorogenic H-Leu-NHMec substrate, 1536-well (AID 1445); set-up: species or system Plasmodium falciparum 3D7, 3D7
T3 sequence (O96935 whole entry): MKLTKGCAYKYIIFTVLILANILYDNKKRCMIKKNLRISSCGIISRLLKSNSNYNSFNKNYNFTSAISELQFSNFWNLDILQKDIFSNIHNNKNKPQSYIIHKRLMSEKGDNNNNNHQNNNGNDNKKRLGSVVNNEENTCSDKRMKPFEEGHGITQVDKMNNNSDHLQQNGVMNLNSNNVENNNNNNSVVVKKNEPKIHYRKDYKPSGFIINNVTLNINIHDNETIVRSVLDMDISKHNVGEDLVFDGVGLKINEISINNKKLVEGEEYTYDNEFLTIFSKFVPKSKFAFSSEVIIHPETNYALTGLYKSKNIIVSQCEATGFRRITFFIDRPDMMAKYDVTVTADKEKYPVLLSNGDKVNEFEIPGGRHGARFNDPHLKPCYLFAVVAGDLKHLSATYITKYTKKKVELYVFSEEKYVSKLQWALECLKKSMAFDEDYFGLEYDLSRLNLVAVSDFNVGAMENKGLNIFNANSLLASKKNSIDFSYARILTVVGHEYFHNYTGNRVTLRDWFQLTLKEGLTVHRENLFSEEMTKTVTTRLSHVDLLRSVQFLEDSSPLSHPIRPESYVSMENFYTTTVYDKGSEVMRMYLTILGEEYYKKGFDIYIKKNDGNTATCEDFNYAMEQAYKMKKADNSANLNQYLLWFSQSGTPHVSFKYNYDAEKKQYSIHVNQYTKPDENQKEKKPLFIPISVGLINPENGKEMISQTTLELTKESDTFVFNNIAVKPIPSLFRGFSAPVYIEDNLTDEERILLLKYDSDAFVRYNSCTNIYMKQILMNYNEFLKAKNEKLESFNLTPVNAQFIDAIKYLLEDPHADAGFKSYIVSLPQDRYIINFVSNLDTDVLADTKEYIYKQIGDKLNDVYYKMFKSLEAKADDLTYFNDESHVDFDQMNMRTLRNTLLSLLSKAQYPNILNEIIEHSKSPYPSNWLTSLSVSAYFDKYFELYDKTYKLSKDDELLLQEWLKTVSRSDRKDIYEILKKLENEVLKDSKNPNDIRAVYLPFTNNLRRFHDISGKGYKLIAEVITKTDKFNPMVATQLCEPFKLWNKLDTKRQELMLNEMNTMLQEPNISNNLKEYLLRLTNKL

Cytochrome P450 3A4 = Cytochrome P450 3A4 (Homo sapiens, UniProt P08684); details: Potency;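 further: confirmatory qHTS run detecting inhibitors and substrates of CYP3A4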
Sequence of Cytochrome P450 3A4 (P08684 whole entry): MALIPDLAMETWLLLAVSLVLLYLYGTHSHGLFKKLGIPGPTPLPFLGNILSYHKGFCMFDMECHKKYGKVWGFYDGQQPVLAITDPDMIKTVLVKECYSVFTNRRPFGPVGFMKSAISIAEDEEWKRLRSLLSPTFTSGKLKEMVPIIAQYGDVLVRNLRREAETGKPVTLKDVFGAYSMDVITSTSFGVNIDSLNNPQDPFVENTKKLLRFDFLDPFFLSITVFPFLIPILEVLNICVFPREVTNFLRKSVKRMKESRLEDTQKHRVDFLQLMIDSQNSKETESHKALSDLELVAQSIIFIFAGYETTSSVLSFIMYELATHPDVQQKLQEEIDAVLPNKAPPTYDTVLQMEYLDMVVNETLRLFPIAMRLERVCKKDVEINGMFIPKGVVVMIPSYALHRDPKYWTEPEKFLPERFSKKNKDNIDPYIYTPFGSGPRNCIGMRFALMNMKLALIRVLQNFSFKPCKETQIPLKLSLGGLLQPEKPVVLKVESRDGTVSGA

Genome polyprotein = Genome polyprotein (dengue virus type 2, UniProt P29990); assay: Dengue-2 NS5 methyltransferase inhibitors, primary screen, biochemical, confirmation dose response (AID 588689); type: functional
Sequence of Genome polyprotein (P29990 2492-3391 limits assumed): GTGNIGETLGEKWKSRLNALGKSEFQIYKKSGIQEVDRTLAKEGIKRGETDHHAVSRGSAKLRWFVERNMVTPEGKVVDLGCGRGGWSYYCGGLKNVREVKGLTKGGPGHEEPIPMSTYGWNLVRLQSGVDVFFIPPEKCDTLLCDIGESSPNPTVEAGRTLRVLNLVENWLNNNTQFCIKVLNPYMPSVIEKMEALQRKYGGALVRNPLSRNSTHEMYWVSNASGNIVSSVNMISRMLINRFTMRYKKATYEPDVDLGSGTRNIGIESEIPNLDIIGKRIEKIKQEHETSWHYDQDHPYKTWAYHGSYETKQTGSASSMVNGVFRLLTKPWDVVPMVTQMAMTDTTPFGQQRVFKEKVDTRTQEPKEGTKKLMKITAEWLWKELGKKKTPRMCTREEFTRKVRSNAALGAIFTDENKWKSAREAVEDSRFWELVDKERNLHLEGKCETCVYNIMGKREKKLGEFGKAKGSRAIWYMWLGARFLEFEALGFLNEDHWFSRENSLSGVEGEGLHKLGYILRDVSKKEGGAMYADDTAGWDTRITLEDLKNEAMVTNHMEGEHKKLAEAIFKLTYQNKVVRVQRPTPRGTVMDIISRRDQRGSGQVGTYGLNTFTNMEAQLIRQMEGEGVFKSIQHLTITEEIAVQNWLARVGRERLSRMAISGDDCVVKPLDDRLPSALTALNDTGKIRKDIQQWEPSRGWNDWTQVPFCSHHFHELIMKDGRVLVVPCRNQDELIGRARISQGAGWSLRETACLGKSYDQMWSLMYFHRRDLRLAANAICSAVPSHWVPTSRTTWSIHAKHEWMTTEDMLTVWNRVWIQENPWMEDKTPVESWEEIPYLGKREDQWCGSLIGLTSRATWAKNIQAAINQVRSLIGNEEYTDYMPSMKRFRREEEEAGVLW

[4] = Vero E6 cell cytotoxicity, dose response, cytotoxicity control for non-replicating M. tuberculosis project, secondary assay (AID 492998); type: functional, VeroE6; details: Vero C1008
cells [5] = type: functional, cell-based
[6] = THP-1 cell cytotoxicity, dose response, cytotoxicity control for non-replicating M. tuberculosis project (AID 489025); type: functional
[7] = HepG2 cell cytotoxicity, dose response, cytotoxicity control for non-replicating M. tuberculosis project (AID 489018); type: functional; details: Mycobacterium tuberculosis
cells [8] = type: functional
cells [9] = type: functional, cell-based; remark: listed apart in the source
INS1 = assay: beta cell apoptosis inhibitors, cytokine rescue, dose response, luminescence, retest (AID 449756); type: functional, cell-based; details: Rattus norvegicus;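 further: cell death triggered by IL-1 beta plus TNF-alpha plus IFN-gamma mixture; protective hits raise ATP signal compared with cytokine alone wells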
[10] = HEp-2 cell cytotoxicity, dose response, cytotoxicity control for RSV inhibitor project, HTS (AID 2410); type: functional; details: human respiratory syncytial virus
[11] = Luminescence Cell-Based Dose Retest to Confirm Inhibitors of Cancer Stem Cells. [Related pubchem assays (depositor defined):AID2717, AID2721]; type: functional; details: Homo sapiens
[12] = inhibitors of intracellular T. cruzi replication, confirmation, NIH3T3 host cells, beta-gal luminescence (AID 2044); type: functional, cell-based;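 further: intracellular parasites grown in NIH/3T3 mouse fibroblasts as host cells; luminescent beta-galactosidase reporter signal from transgenic T. cruzi replicating inside host cells; inhibitors lower the luminescence signal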
[13] = cytotoxicity toward NIH3T3 fibroblasts, dose response, counter-screen, cell-based, ATP luminescence, mouse fibroblasts (AID 2010); type: functional;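 further: cells exposed to compound for about 90 hours before reading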
Fatty acid synthase [14] = biological target: T4, Fatty acid synthase (Homo sapiens, UniProt P49327); assay: FAS thioesterase domain inhibitors, dose response, biochemical, endpoint fluorescence intensity, uHTS hits (AID 624327); type: functional;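 further: fluorescence from hydrolysis of an O-methyl fluorescein acyl ester substrate by the enzyme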
T4 sequence (P49327 whole entry, the tested form may be a part): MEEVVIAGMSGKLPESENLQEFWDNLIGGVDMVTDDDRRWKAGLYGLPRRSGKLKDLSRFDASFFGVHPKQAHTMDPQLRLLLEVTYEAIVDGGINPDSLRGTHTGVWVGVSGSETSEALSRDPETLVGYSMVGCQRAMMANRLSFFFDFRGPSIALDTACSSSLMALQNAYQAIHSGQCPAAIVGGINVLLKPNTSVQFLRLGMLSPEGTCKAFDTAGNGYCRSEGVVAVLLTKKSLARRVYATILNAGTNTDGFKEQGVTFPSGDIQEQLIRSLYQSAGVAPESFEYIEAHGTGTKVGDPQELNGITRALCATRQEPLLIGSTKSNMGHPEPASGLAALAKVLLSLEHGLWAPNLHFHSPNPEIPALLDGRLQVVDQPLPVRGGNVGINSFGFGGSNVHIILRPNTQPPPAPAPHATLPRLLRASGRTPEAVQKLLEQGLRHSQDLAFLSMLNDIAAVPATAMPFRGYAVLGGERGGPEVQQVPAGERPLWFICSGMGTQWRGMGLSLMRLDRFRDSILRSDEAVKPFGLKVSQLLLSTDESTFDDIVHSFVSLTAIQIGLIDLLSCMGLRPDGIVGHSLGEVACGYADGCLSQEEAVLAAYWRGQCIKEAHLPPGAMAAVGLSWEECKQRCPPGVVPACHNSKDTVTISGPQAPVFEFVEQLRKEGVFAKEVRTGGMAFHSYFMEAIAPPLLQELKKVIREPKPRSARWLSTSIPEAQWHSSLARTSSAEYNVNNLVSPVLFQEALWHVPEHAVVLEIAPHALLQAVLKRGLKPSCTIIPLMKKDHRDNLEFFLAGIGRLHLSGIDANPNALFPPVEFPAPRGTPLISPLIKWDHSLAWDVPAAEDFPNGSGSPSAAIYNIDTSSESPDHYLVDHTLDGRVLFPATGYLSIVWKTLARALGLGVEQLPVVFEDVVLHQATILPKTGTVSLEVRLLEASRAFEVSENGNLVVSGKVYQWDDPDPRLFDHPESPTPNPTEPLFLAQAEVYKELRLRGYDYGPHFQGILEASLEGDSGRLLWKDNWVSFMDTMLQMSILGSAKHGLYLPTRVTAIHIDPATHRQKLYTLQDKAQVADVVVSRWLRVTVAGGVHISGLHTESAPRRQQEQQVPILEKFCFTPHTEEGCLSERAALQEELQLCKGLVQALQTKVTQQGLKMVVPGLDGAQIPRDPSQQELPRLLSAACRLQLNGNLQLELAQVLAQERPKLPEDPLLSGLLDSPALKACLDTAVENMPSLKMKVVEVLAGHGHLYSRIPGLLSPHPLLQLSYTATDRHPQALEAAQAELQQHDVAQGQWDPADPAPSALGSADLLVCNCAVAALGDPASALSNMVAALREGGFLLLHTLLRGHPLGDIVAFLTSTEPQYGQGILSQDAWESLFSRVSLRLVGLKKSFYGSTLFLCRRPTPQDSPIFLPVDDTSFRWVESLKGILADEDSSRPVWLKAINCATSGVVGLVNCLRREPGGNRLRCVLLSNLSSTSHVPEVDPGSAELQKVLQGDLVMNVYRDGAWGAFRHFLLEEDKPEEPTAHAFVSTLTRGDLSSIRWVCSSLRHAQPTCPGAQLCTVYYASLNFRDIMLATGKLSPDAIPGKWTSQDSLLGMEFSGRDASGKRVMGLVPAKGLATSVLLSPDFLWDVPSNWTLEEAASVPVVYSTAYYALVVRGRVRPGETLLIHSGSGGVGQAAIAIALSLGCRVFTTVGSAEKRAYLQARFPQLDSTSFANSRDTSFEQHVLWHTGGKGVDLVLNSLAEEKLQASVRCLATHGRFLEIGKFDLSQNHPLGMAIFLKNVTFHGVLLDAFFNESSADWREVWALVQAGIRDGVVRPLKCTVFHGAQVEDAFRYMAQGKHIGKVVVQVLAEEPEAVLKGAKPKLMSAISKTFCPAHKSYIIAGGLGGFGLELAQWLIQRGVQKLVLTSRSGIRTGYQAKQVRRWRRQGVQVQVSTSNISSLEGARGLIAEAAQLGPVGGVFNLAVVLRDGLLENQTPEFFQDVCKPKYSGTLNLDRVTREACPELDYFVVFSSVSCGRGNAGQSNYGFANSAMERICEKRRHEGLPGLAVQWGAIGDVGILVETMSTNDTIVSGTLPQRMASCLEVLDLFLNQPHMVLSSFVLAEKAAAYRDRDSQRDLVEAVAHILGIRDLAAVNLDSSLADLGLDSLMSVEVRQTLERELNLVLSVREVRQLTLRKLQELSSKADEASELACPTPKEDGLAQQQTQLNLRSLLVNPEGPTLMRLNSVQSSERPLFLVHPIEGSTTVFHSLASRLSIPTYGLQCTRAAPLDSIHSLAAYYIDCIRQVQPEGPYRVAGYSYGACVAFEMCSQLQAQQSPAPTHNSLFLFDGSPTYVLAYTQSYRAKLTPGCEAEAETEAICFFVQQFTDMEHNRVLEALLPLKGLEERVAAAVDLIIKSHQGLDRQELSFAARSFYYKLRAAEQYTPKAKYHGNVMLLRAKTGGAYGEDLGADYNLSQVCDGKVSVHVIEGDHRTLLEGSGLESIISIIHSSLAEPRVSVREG

Nonstructural protein 1 = Nonstructural protein 1 (Influenza A virus, UniProt Q194T2); type: functional, Influenza A virus (A/California/07/2009(H1N1))
Sequence of Nonstructural protein 1 (Q194T2 whole entry, the tested form may be a part): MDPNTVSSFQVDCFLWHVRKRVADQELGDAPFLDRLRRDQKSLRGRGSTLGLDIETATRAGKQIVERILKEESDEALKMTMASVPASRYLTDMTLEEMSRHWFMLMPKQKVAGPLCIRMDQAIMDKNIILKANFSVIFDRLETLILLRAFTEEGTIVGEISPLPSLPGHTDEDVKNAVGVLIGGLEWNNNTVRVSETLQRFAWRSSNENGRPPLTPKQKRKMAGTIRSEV

Fatty acid synthase [15] = biological target: T4, Fatty acid synthase; assay: FAS thioesterase domain inhibitors, dose response, biochemical, kinetic fluorescence intensity (AID 624326); type: functional;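 further: rate of fluorescence rise from hydrolysis of a fluorogenic O-methyl fluorescein ester substrate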
[16] = inhibitors of Vif binding to APOBEC3G peptide, primary screen, biochemical, TR-FRET, GST-Vif 1-94, biotin-A3G peptide, dose response retest (AID 1117319); type: functional;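 further: TR-FRET signal of purified GST-Vif binding a biotinylated A3G peptide; inhibitors lower the FRET signal by blocking Vif and A3G binding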
[17] = biological target: T5, Rac GTPase-activating protein 1 (Homo sapiens, UniProt Q9H0H5); assay: MgcRacGAP GTPase-activating activity inhibitors, confirmation, biochemical, ADP Hunter fluorescence, primary and confirmatory (AID 624330); type: functional
T5 sequence (Q9H0H5 whole entry): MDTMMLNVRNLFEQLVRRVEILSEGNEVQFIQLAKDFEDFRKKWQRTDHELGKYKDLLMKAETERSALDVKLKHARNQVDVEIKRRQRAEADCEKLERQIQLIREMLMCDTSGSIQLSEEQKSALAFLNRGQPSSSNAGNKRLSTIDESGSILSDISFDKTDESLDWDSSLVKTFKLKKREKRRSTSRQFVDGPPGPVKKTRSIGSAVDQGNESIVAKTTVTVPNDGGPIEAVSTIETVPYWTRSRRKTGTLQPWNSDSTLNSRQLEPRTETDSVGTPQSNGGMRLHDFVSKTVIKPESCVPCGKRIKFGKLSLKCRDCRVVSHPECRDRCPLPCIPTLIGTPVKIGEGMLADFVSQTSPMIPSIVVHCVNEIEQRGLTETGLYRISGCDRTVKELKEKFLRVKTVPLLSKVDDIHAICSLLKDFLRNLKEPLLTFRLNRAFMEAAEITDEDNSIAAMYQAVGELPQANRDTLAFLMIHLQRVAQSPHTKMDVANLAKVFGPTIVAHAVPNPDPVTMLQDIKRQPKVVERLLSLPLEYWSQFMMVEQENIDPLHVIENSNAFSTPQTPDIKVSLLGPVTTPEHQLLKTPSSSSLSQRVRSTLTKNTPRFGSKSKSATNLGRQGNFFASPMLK

CC1(C)Cc2c(cnn2-c2ccccc2)-c2c1c1ccccc1n2CC(O)CCl (stereo unspecified)
EC50 [1]: 8.41 µM (active)
EC50 (Streptococcus): > 150 µM (not active)
CC50 [2]: > 40 µM (active)
EC50 (Streptokinase A): 13.7 µM (active)

O=C(CN1C(=O)S/C(=C\c2cccc(Cl)c2)C1=O)NCCCn1ccnc1
IC50 [3]: 20.9 µM (active)

Cc1cccc(C(=O)NC2CCN(C(=S)NCc3ccco3)CC2)c1
IC50 (Aminopeptidase N): 113 µM (active)

Oc1ccc2c(c1)OCO2
AC50 (Cytochrome P450 3A4): 15.8 µM (inconclusive)

Cc1ccc(/C=C2\SC(NS(=O)(=O)c3cccs3)=NC2=O)cc1
IC50 (Genome polyprotein): 71.5 µM (active)
IC50 (Aminopeptidase N): 33.1 µM (active)

COc1c2c(c(CC=C(C)C)c3oc(=O)c(-c4ccc(O)cc4)c(O)c13)OC(C)(C)C=C2 [LONCHOCARPIC ACID]
AC50 (Cytochrome P450 3A4): 12.6 µM (inconclusive)

Cc1cc(NS(=O)(=O)c2ccc(NC(=O)CSc3nc(O)c4c(C)c(C)sc4n3)cc2)no1
IC50 (Genome polyprotein): 81.9 µM (active)
IC50 (Aminopeptidase N): 35.8 µM (active)

Cc1ccccc1N(CC(=O)NC(C)(C)C)C(=O)C[S+]([O-])CC(=O)Nc1ccc2c(c1)OCO2 (stereo unspecified)
IC50 (Aminopeptidase N): 79.3 µM (active)

Cc1ccc(Cl)cc1N1CCN(Cc2nc(O)c3sccc3n2)CC1
CC50 [2]: > 40 µM (active)

O=C(NC1CCN(C(=S)NCc2ccco2)CC1)c1cccc(F)c1
IC50 (Aminopeptidase N): 79.9 µM (active)

CCOC(=O)C(Cc1ccc(O)cc1)NC(C)=O (stereo unspecified) [ACETYL TYROSINE ETHYL ESTER]
AC50 (Cytochrome P450 3A4): 25.1 µM (inconclusive)

CC(C)(C)CC(C)(C)c1ccc(OCCO)cc1 [TRITON X]
AC50 (Cytochrome P450 3A4): 31.6 µM (inconclusive)

Cc1ccc(-n2cc(CN3CCN(Cc4nccn4C)CC3)c(-c3cccc(C)c3)n2)cc1
IC50 [3]: 10.5 µM (active)

Oc1ccccc1/C=N/Nc1ncc(Br)cn1
CC50 [4]: 3.26 µM (active)
EC50 (cells [5]): 23 µM (active)
CC50 [6]: 6.62 µM (active)
CC50 [7]: > 20 µM (active)
IC50 (cells [8]): 7.9 µM (active)
EC50 (cells [9]): 7.46 µM (active)
AC50 (INS1): 2.77 µM (active)

CCc1ccc2nc(N(CCCN(C)C)C(=O)c3ccc(S(=O)(=O)N4CCCc5ccccc54)cc3)sc2c1
CC50 [2]: 13.8 µM (active)
CC50 [10]: 12.7 µM (active)
AC50 [11]: 6.44 µM (active)
EC50 [12]: 0.187 µM (active)
EC50 [13]: 9.15 µM (active)

O=C(Cn1cnc([N+](=O)[O-])n1)N/N=C/c1cc(Cl)ccc1O
IC50 (Fatty acid synthase [14]): 1.22 µM (active)
EC50 (cells [5]): > 350 µM (not active)
IC50 (Nonstructural protein 1): 12.3 µM (active)
IC50 (Aminopeptidase N): 13.3 µM (active)
EC50 (cells [9]): 14.5 µM (active)
IC50 (Fatty acid synthase [15]): 2.94 µM (active)

COc1cc2c(cc1N)-c1ccc(N)cc1C2
IC50 [16]: > 100 µM (active)
IC50 [17]: 10.7 µM (active)

COCCNC(=O)C1(CC(C)C)C=CCN1C(=O)c1ccccc1 (stereo unspecified)
AC50 (Cytochrome P450 3A4): 20 µM (inconclusive)

CCCOc1ccc(C(CC(=O)O)NC(=O)c2sc3ccccc3c2Cl)cc1 (stereo unspecified)
IC50 [3]: 7.59 µM (active)

CCCn1c(C)nc2c(N(CCOC)CCOC)nc(C)nc21
AC50 (Cytochrome P450 3A4): 15.8 µM (inconclusive)

From ChEMBL document CHEMBL1201862, “PubChem BioAssay data set” (2004)
